Results as given in patent US12312599B2, “Methods, compositions, and kits for producing beige adipocytes and treating metabolic disorders” (MaineHealth, priority 2018, dated 2025).

Tested on: FD-MSCs
Assay: PLIN and PPARγ2 immunostaining of differentiated FD-MSC cultures
Assay type: cell-based, human
Conditions: SB-treated cultures
Description: All assays were performed between 7 and 15 passages. For osteocyte differentiation, mature MSCs were grown in 24 well culture plates to 100% confluency in MesenCult-ACF and induced to differentiate in OsteoLife Complete Osteogenesis Medium (Lifeline Cell Technology) for 21 days prior to staining with Lifeline Alizarin Red Stain to visualize calcium deposition. For chondrocyte differentiation. For beige adipogenic precursor generation, cells were grown in 24 well culture plates to 90% confluence and treated with 5 uM SB413542 (Sigma) and 10 nM human IL-4 (Peprotech) for 2 days. For beige adipogenic induction, adipogenic precursors are differentiated for 3 days with adipogenic medium consisting of T3 (2 nM), insulin (170 nM), rosiglitazone (1 μM), SB413542 (5 uM), IBMX (0.5 mM), dexamethasone (5 μM) and indomethacin (125 μM) in EGM-2 medium (Lonza) supplemented with the BulletKit minus FGF2 (modified from^33). Thereafter, cells are maintained in adipogenic medium without IBMX, dexamethasone and indomethacin. The medium was changed every 3 days and adipocytes were fully differentiated by 9-12 days as determined by lipid accumulation and peak expression of UCP1.
Cell Isolation, Expansion and Differentiation of Interscapular Brown Adipose Tissue Preadipocytes • 1. Prior to adipose cell isolation, warm DMEM, FBS and cell wash buffer to room temperature. • 2. […]

Structure (SMILES): NC(=O)c1ccc(-c2nc(-c3ccc4c(c3)OCO4)c(-c3ccccn3)[nH]2)cc1 [SB, SB431542]
- cells in culture that are mature adipocytes (PLIN and PPARγ2 staining): 87%-88%
